# Activity calls are given as the source filed them.
# How the values were obtained:
# [1] = HEK-293T viability loss after treatment – luminescence, T-cell screen hits, cytotoxicity control for TCR NF-kB inhibitor project, dose response (AID 489026); type: functional, cell-based;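 also: cells exposed to compound about 14 hours before the viability readout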
# Paired box protein Pax-8 = Paired box protein Pax-8 (Homo sapiens, UniProt Q06710); test: PAX8 transcriptional activity inhibition in RMG-I – RMG-I cells, luciferase, cherry-pick, dose response (AID 687027); type: functional, cell-based;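 also: luciferase reporter driven by Pax8 target thyroperoxidase promoter measured by SteadyGlo luminescence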
# Sequence of Paired box protein Pax-8 (Q06710 whole entry): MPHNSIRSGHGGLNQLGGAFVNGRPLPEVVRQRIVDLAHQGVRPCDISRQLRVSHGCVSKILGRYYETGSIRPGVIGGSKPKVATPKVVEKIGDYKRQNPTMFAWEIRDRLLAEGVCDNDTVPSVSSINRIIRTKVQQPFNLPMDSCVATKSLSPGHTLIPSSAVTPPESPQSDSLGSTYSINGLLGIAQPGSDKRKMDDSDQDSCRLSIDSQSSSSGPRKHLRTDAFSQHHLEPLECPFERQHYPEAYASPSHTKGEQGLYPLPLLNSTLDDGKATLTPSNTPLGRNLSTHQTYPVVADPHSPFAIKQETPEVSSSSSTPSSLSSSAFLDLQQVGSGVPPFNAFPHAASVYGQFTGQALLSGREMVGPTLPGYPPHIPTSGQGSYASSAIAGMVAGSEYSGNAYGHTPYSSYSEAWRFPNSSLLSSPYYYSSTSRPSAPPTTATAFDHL
# Cytochrome P450 2C9 = Cytochrome P450 2C9 (Homo sapiens, UniProt P11712)
# Sequence of Cytochrome P450 2C9 (P11712 whole entry): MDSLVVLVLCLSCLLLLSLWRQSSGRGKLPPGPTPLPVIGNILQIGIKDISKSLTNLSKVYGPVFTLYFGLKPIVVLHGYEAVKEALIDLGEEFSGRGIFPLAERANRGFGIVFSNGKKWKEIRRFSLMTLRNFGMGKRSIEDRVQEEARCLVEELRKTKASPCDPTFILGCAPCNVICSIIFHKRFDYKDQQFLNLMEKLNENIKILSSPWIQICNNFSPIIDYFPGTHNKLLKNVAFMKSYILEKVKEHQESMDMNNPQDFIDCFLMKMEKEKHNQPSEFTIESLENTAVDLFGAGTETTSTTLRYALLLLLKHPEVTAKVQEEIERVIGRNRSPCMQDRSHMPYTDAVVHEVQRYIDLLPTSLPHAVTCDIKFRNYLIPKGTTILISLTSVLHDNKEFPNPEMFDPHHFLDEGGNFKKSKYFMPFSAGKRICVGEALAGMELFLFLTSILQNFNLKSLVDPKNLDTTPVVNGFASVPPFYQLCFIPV
# [2] = biological target: T1, Calpain-2 catalytic subunit (Sus scrofa, UniProt P43367); test: m-calpain protease blockers, concentration series – biochemical, fluorogenic peptide substrate, dose response (AID 1420); type: functional
# T1 sequence (P43367 whole entry): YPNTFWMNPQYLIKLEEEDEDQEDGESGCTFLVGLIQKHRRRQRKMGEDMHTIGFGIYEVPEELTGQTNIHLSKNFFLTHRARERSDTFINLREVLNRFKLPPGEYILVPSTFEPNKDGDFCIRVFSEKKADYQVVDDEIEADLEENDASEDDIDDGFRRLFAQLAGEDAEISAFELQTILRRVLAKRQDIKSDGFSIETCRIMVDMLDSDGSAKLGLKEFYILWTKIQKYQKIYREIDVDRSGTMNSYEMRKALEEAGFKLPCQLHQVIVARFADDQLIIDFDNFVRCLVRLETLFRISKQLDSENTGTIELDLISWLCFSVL
# [3] = biological target: T2, Polyadenylate-binding protein 1 (Homo sapiens, UniProt P11940); test: MLLE binding blockers, Cy5 peptide tracer – biochemical, fluorescence polarization, Cy5-PAM2 peptide, secondary, miRNA deadenylation inhibitor project, dose response (AID 602260); type: functional; details: read-out: IC50_Mean
# T2 sequence (P11940 whole entry, the tested form may be a part): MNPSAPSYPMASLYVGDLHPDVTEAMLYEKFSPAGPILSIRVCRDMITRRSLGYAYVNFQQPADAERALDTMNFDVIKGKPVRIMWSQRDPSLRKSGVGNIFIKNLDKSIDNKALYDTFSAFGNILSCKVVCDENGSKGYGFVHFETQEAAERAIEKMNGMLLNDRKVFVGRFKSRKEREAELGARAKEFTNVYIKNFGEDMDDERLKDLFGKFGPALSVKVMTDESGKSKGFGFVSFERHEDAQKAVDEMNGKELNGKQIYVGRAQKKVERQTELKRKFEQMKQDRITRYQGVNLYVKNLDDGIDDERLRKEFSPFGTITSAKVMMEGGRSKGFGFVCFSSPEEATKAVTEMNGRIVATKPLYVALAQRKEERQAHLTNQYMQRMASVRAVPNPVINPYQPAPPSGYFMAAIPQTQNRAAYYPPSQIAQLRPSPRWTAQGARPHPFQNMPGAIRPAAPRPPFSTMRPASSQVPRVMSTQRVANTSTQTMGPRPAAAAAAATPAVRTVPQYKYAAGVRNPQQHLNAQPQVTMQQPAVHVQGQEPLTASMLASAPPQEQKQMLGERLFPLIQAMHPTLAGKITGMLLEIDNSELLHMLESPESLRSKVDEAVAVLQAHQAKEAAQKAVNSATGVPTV
# [4] = biological target: T2, Polyadenylate-binding protein 1; test: MLLE domain peptide-binding blockers, IC50 – biochemical, fluorescence polarization, FITC-PAM2 peptide, dose response (AID 602259); type: functional; details: read-out: IC50_Mean
# Protein skinhead-1 = biological target: T3, Protein skinhead-1 (Caenorhabditis elegans, UniProt P34707); type: functional
# T3 sequence (P34707 whole entry): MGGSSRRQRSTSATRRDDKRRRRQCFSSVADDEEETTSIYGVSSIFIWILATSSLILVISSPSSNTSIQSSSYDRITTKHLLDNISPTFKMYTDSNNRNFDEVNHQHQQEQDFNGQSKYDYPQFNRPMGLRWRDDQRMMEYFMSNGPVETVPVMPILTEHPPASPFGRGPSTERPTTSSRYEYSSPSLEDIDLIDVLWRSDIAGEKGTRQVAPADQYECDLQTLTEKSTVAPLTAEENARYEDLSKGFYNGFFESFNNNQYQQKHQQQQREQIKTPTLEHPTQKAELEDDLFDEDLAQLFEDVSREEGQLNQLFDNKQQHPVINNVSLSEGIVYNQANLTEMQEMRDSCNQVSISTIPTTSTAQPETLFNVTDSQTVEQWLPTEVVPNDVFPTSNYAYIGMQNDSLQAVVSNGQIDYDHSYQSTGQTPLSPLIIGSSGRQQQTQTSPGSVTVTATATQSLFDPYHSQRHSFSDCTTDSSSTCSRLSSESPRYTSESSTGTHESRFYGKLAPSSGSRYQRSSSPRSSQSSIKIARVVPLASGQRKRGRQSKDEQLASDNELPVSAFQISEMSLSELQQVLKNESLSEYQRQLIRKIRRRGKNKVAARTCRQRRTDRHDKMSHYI
# [5] = biological target: Heat shock protein HSP 90-alpha (Homo sapiens, UniProt P07900); type: functional, organism-based
# [6] = biological target: T4, Short transient receptor potential channel 4 (Mus musculus, UniProt Q9QUQ5); test: block of DAMGO-driven TRPC4 calcium entry – cell-based, HEK293 TRPC4/mu-opioid, Fluo-4 calcium, dose response (AID 434942); type: functional;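 also: potency of inhibitors blocking the TRPC4 calcium response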
# T4 sequence (Q9QUQ5 whole entry): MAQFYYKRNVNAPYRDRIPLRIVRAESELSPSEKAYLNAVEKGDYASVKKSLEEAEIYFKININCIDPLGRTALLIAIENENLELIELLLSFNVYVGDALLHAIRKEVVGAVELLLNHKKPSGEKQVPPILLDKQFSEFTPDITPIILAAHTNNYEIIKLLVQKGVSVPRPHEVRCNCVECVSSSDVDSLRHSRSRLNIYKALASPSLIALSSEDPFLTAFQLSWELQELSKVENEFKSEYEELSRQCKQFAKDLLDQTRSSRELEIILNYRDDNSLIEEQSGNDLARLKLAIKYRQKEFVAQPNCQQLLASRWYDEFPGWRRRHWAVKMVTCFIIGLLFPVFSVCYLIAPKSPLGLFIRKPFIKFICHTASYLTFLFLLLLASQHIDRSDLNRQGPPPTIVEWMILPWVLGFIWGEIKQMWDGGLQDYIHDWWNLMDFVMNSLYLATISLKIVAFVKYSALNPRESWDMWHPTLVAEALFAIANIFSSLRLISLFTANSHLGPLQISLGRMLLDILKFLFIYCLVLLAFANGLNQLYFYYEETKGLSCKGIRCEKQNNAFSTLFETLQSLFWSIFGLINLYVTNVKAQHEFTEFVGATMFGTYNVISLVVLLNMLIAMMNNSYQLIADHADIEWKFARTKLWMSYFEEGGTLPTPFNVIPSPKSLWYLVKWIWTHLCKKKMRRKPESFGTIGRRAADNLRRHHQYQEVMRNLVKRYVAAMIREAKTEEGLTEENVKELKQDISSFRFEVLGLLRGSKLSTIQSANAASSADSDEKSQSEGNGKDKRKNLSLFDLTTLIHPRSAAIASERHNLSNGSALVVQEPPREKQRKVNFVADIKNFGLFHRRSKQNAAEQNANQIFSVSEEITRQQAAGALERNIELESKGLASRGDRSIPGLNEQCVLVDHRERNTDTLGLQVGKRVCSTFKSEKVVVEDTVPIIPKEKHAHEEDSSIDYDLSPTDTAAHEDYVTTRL
# [7] = Luminescence Cell-Based Dose Response HTS to Identify Activators of Luciferase Translation or Activity in H4 […] Cells. [Related pubchem assays: 1829 (Project Summary), 1814 (Primary HTS)]; type: functional
# H4 = test: Luminescence Cell-Based Dose Response HTS to Identify Activators of 5'UTR Stem-Loop Driven Prion Protein mRNA Translation in H4 Neuroglioblastoma Cells. [Related pubchem assays: 1829 (Project Summary), 1814 (Primary HTS)]; type: functional; details: Homo sapiens
# [8] = Luminescence Cell-Based Dose Retest to Confirm Inhibitors of Cancer Stem Cells. [Related pubchem assays (depositor defined):AID2717, AID2721]; type: functional; details: Homo sapiens
# [9] = Luminescence Cell-Based Dose Confirmation HTS to Identify Activators of 5'UTR Stem-Loop Driven Alpha-Synuclein mRNA Translation in H4 Neuroglioblastoma Cells. [Related pubchem assays: 1829 (Project Summary), 1814 (Primary HTS)]; type: functional
# [10] = biological target: T5, Heat shock factor protein 1 (Mus musculus, UniProt P38532); test: decrease of HSF1-responsive luciferase luminescence – cell-based, NIH3T3, dose retest, confirmation (AID 2382); type: functional;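 also: NIH3T3 fibroblasts with HSF1-driven luciferase reporter stressed by proteasome inhibitor MG132; luminescence from HSF1-driven luciferase expression after 8 hours of MG132 stress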
# T5 sequence (P38532 whole entry): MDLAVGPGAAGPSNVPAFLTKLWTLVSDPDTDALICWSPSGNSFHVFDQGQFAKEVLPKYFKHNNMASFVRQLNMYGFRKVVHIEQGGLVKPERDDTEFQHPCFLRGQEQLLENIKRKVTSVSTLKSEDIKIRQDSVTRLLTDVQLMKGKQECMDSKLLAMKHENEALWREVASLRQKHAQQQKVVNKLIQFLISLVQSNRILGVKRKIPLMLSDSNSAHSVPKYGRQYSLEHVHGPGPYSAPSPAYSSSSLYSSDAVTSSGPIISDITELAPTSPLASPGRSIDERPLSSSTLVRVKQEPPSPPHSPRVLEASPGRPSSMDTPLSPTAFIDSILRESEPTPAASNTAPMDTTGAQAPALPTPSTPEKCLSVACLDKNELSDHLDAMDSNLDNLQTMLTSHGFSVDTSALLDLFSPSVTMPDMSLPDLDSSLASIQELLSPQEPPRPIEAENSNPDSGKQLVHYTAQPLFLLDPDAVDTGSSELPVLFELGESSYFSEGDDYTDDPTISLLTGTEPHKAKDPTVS
# [11] = alpha-synuclein stem-loop luciferase translation blockers – H4 neuroglioma cells, luminescence, confirmation (AID 1988); type: functional, cell-based
# [12] = luciferase reporter signal suppression in cells – H4 neuroglioma cells, luminescence, dose response (AID 1990); type: functional, cell-based
# [13] = Luminescence Cell-Based Dose Response HTS to Identify Inhibitors of 5'UTR Stem-Loop Driven Prion Protein mRNA Translation in H4 Neuroglioblastoma Cells. [Related pubchem assays: 1827 (Project Summary), 1813 (Primary HTS)]; type: functional
compound,measurement,setting,value
Cc1ccc(C(=O)c2cc([N+](=O)[O-])ccc2N2CCCCC2)c(C)c1,IC50,[1],> 80 µM (inactive)
same,AC50,Paired box protein Pax-8,0.929 µM (active)
Cc1c(C#N)c(=O)oc2ccc3ccccc3c12,AC50,Cytochrome P450 2C9,inconclusive
CCc1ccc(CNCc2cccnc2)cc1,IC50,[2],0.454 µM (not active)
O=C(CNC(=O)C12CC3CC(CC(C3)C1)C2)NC1=NCCS1,IC50,[3],> 66 µM (inactive)
same,IC50,[4],> 66 µM (inactive)
CCOC(=O)C(CSCC(=O)c1ccc(Cl)cc1Cl)NC(=O)OC(C)(C)C (centres undefined),IC50,Protein skinhead-1,> 100 µM (inactive)
same,IC50,[3],> 66 µM (inactive)
same,IC50,[4],> 66 µM (inactive)
Cc1ccc(-c2nc3cccnc3s2)cc1NS(=O)(=O)c1ccc2c(c1)OCCO2,AC50,[5],2.9 µM (active)
CCOC(=O)c1c(NC(=O)C2CC(Cl)=CCC2C(=O)O)sc2c1CCCCC2 (centres undefined),EC50,[6],6.68 µM (active)
Cc1nc(NCc2ccco2)c2c(C)c(C)sc2n1,EC50,[7],8.42 µM (active)
same,IC50,[1],> 80 µM (inactive)
same,EC50,H4,> 120 µM (not active)
same,AC50,[8],3.97 µM (active)
same,EC50,[9],> 120 µM (not active)
same,EC50,[10],1.22 µM (active)
CC[n+]1c(/C=C(/C)SC)sc2ccccc21,IC50,[3],> 66 µM (inactive)
same,IC50,[4],> 66 µM (inactive)
COC(=O)Nc1ccc(S(=O)(=O)N2CCCc3ccccc32)cc1,EC50,[11],0.37 µM (active)
same,IC50,[1],> 80 µM (inactive)
same,AC50,[8],0.362 µM (active)
same,EC50,[12],8.02 µM (active)
same,EC50,[13],7.32 µM (active)

# Reference: ChEMBL document CHEMBL1201862, “PubChem BioAssay data set” (2004)
